Assay results from publication PMC4275233, “Evaluation of the Cardiotoxicity of Mitragynine and Its Analogues Using Human Induced Pluripotent Stem Cell-Derived Cardiomyocytes” (PLoS ONE, 2014).

What was measured:
[1] = molecular target: T1, hERG (Kv11.1) (Homo sapiens, UniProt Q12809); assay: whole-cell patch clamp: hERG-HEK293 cells ([…]) and I Kr in hiPSC-CMs (IC50); type: cell-based
T1 construct: gene KCNH2

[2] = molecular target: T1, hERG (Kv11.1); assay: whole-cell patch clamp of I Kr tail current in hiPSC-CMs; type: cell-based

T1 sequence (Q12809 whole entry): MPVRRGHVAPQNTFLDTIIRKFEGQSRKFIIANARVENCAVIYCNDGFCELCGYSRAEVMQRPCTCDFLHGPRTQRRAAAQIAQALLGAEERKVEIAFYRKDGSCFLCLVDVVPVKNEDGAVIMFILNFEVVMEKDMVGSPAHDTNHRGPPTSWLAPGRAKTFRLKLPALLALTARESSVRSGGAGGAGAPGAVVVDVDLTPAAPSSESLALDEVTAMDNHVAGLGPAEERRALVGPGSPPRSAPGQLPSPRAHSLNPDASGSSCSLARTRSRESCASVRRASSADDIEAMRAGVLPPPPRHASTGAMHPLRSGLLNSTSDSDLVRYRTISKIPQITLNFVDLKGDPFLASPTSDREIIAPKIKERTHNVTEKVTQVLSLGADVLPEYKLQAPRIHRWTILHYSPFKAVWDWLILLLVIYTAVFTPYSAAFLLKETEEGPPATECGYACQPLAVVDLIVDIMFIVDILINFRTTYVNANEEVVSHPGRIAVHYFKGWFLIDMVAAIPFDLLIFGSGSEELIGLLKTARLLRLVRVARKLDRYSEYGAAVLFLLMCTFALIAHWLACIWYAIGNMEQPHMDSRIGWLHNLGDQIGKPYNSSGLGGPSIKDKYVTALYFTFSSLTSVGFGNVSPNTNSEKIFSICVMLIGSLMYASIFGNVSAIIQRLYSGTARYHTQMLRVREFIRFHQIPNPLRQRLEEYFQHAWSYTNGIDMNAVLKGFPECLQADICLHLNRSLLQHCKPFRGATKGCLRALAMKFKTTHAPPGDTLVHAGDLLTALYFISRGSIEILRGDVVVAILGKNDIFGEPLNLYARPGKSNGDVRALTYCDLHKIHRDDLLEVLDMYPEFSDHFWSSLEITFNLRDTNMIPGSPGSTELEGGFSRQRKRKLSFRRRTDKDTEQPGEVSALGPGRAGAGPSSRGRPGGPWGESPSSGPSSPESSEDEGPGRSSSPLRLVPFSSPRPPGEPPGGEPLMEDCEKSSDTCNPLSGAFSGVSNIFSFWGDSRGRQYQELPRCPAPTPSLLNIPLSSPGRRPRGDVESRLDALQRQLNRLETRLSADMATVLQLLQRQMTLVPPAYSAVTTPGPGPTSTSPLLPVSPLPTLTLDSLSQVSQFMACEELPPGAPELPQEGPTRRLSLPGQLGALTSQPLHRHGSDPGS

Row | SMILES | IC50 [1] [nM] | IC50 [2] [nM]
1 | CC[C@@H]1CN2CCc3c([nH]c4cccc(OC)c34)[C@@H]2C[C@@H]1/C(=C\OC)C(=O)OC [Mitragynine] | 910 | –
2 | C=C[C@H]1CN2CCc3c([nH]c4cccc(OC)c34)[C@@H]2C[C@@H]1/C(=C\OC)C(=O)OC [Paynantheine] | – | 2470
3 | CC[C@@H]1CN2CCc3c([nH]c4cccc(OC)c34)[C@H]2C[C@@H]1/C(=C\OC)C(=O)OC [Speciociliatine] | – | 1480
4 | CC[C@H]1CN2CCc3c([nH]c4cccc(OC)c34)[C@@H]2C[C@@H]1/C(=C\OC)C(=O)OC [Speciogynine] | – | 1020
